Results: patent US11395798B2, “O/W type emulsion” (NOF CORPORATION, priority 2015, dated 2022)

Assays:
[1] = influence of concentration of PEG lipid on retentivity in blood; format: in vivo; conditions: B-2/DOPC/Chol=3/4/3, 10 mol % DMG-PEG2000, 3-9 mol % DSG-PEG2000, 10 mol % Dex-CHEMS; mouse tail vein; almost equal for 6 and 9 mol %
Description: An emulsion having a composition of B-2/DOPC/Chol=3/4/3+10 mol % DMG-PEG2000+3-9 mol % DSG-PEG2000+10 mol % Dex-CHEMS was prepared in the same manner as in Example 1. An emulsion having each PEG amount was administered from the mouse tail vein, plasma was collected 1 min, 1 hr, 6 hr and 24 hr later, extracted with an organic solvent, and Dex-CHEMS concentration was calculated by HPLC. Along with an increase in DSG-PEG2000, the retentivity in blood was improved to become almost equal for DSG-PEG2000 6 mol % and 9 mol %.

[2] = retentivity in blood of Dex-CHEMS / Dex-Pal emulsions (HPLC of plasma); set-up: species or system ICR mouse; conditions: mouse, in vivo, iv
Description: When the lipid composition was 3 mM B-2/DOPC/Chol=3/4/3+10 mol % Dex-CHEMS+10 mol % DMG-PEG2000+10 mol % DSG-PEG2000 (1000 μL), a lipid solution was mixed in vitro as follows.
The solvent was evaporated once and the residue was redissolved in 100 μL CHCl3. N2 gas was blown to form a lipid thin film on the wall of a test tube. After a few hours of a vacuum treatment by a desiccator, 20 mM Maric acid buffer (30 mM NaCl, pH 3.0, 1000 μL) was added, and the mixture was incubated for 10 min at room temperature. After sonication with a bath-type sonicator for 30 sec, the mixture was sonicated by a probe-type sonicator for 5 min (output power: 30%). After centrifugation at 4° C., 15000 g for 5 min, the supernatant was collected. Neutralization was performed by adding an equal amount of 36 mM NaOH/PBS.
An emulsion composed of Dex-CHEMS and B-2 was administered to ICR mouse (4 w ♂) at 25 μg Dex-CHEMS/mouse. […]
Plasma (16.5 μL) centrifuged at 4° C., 1000 g for 10 min was transferred to another 1.5 mL tube. […] Using HPLC, the peak area of Dex-CHEMS and the peak area of 4 MU-Pal were calculated. The peak area of 0.5, 0.25, 0.125, 0.0625 nmol Dex-CHEMS was calculated by a similar method using HPLC and used as an analytical curve. […]
The residual rate in blood at 1 hr later was calculated with that 1 min after the administration as 100%.

## CC(C)CCC[C@@H](C)[C@H]1CC[C@H]2C3CC=C4C[C@@H](OC(=O)CCC(=O)OCC(=O)[C@]5(O)[C@@H](C)C[C@@H]6[C@H]7CCC8=CC(=O)C=C[C@@]8(C)[C@]7(F)C(O)C[C@]65C)CC[C@]4(C)[C@H]3CC[C@]12C (some centres unmarked) [Dex-CHEMS, dexamethasone cholesterol hemisuccinate]
[1]
  retentivity in blood along with an increase in DSG-PEG2000: improved
[2]
  residual in blood at 1 hr (1 min after administration as 100%): continuously remained
